Read-outs that look alike come from different tables or passages of the source. Blank lines part the entries; values can stand above or below the compound they belong to.
Legend:
DLD-1 cells = assay: Inhibition of proliferation, DLD-1 BRCA2 wt control (Cell Titre Glo 3D); format: cell-based; conditions: for IC50: Homo sapiens
Description: This assay identifies anti-proliferative effects of POLQ compounds in the homologous recombination deficient colorectal cell line DLD-1 BRCA2−/− over 8-9 population doublings (7 days for DLD-1 and 12 days for DLD-1 BRCA2−/−). DLD1 BRCA2 wt are used as a control to detect cell toxic effects not specific to homologous recombination deficiency.
DLD-1 BRCA2−/− and DLD-1 cells were kept in continuous culture in Assay Medium (RPMI 1640 phenol red free (Sigma R7509) containing 1% GlutaMAX (Gibco 35050) and 10% Foetal Bovine Serum (Gibco 10270-106)). On the day of the assay cells in culture of ˜80-90% confluent were used. Cell monolayers were washed with 10 mL PBS, then removed and added 2 mL TrypLE Express (Gibco 12604). The cells with TrypLE Express were incubated for 5 minutes in cell culture incubator and then the detached cells resuspend in 15 mL Assay Medium. Cells were counted using a ViCell and the cell images were monitored for clumps of cells, ideally they should be single or <3 cell clusters. The cells were diluted to 3,000 cells/mL of DLD-1 BRCA2−/− and 1,500 cells/mL of DLD-1 in Assay Medium and 100 μL added per well of transparent bottomed, black, tissue culture-treated 96-well plates (CoStar, No. 3904) Assay Ready Plates. The Assay Ready Plates contain a 10 point 10 μM to 0.51 nM dose range with three-fold dilutions in DMSO with a final volume of 100 nL. The plates were incubated at 37° C. with 5% C02 for 6 days. On day 6, 100 μL/well of Assay Medium was added to duplicate Assay Ready Plates. 90 μL of culture medium was removed from the cell plates and replenished with the Assay Media and compounds from the duplicate Assay Ready Plates using the Bravo. The plates were further incubated at 37° C. with 5% CO2. On day 7 the plates containing DLD-1 and Cell Titre Glo 3D (Promega G9683) were equilibrated to room temperature, then 60 μL of Cell Titre Glo 3D was added per well and incubated on a shaking platform for 30 min. Plates were read on the Envision measuring luminescence for 1 second per well. On day 12 the plates containing DLD-1 BRCA2−/− cells and Cell Titre Glo 3D (Promega G9683) were equilibrated to room temperature, then 60 μL Cell Titre Glo 3D added per well and incubated on a shaking platform for 30 min. Plates were read on the Envision measuring luminescence for 1 second per well. The data was exported into a suitable software package (such as Genedata) to perform curve fitting analysis. Inhibition of cell proliferation was expressed as an IC5o value and was determined by calculation of the concentration of compound that was required to give a 50% reduction of the average maximum Total Intensity signal.

DLD-1 BRCA2−/− cells = assay: Homologous recombination synthetic lethal inhibition of proliferation, DLD-1 BRCA2-/- (Cell Titre Glo 3D); format: cell-based; conditions: for IC50: Homo sapiens
Outline: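 Wild-type DLD-1 serves as the control for non-specific toxicity, and BRCA2-null DLD-1 as the homologous-recombination-deficient line. Both grew with compound from 10 μM down to 0.51 nM, re-dosed after 6 days. Luminescent ATP content (CellTiter-Glo 3D) was read after 7 or 12 days, respectively, to give IC50 values.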

[1] = DLD-1, DLD1 BRCA2 wt, mean, read-out: POLQ PD Prolif Lumin DLD1 mean pIC50 (converted)
[2] = DLD-1, DLD-1 BRCA2 −/−, mean, read-out: POLQ PD Prolif Lumin BRCA2 −/− mean pIC50 (converted)
[3] = DLD-1, 168 h, DLD-1 BRCA2 wt cells, 7 days, read-out: POLQ PD Prolif Lumin DLD1 mean pIC50 (converted)
[4] = DLD-1, 288 h, DLD-1 BRCA2−/− cells, 12 days, read-out: POLQ PD Prolif Lumin BRCA2 −/− mean pIC50 (converted)

IC50 (DLD-1 cells; [1]): > 10000 nM
Structure (SMILES): COc1ccc(C)cc1Cn1c(-c2ccc(OCCC(C)C(=O)O)cc2Cl)nc2c(OC3(C)CC3)ncnc21 (racemic) [Example U1, 4-(3-chloro-4-(9-(2-methoxy-5-methylbenzyl)-6-(1-methylcyclopropoxy)-9H-purin-8-yl)phenoxy)-2-methylbutanoic acid]
IC50 (DLD-1 BRCA2−/− cells; [2]): 50.1 nM

IC50 (DLD-1 cells; [1]): > 10000 nM
Structure (SMILES): COc1ccc(F)cc1Cn1c(-c2ccc(OCCC(C)C(=O)O)cc2Cl)nc2c(OC3(C)CC3)ncnc21 (racemic) [Example U2, 4-(3-chloro-4-(9-(5-fluoro-2-methoxybenzyl)-6-(1-methylcyclopropoxy)-9H-purin-8-yl)phenoxy)-2-methylbutanoic acid]
IC50 (DLD-1 BRCA2−/− cells; [2]): 63.1 nM

IC50 (DLD-1 cells; [1]): > 10000 nM
Structure (SMILES): CC(CCOc1ccc(-c2nc3c(OC4(C)CC4)ncnc3n2Cc2cc(Cl)ccc2C#N)c(Cl)c1)C(=O)O (racemic) [Example U9, 4-(3-chloro-4-(9-(5-chloro-2-cyanobenzyl)-6-(1-methylcyclopropoxy)-9H-purin-8-yl)phenoxy)-2-methylbutanoic acid]
IC50 (DLD-1 BRCA2−/− cells; [2]): 79.4 nM

IC50 (DLD-1 cells; [1]): > 10000 nM
Structure (SMILES): CC(CCOc1ccc(-c2nc3c(OC4(C)CC4)ncnc3n2Cc2c(F)cccc2C#N)c(Cl)c1)C(=O)O (racemic) [Example U13, 4-(3-chloro-4-(9-(2-cyano-6-fluorobenzyl)-6-(1-methylcyclopropoxy)-9H-purin-8-yl)phenoxy)-2-methylbutanoic acid]
IC50 (DLD-1 BRCA2−/− cells; [2]): 3160 nM

IC50 (DLD-1 cells; [1]): > 10000 nM
Structure (SMILES): COc1ccc(C#N)cc1Cn1c(-c2ccc(OCCC(C)C(=O)O)cc2Cl)nc2c(OC3(C)CC3)ncnc21 (racemic) [Example U14, 4-(3-chloro-4-(9-(5-cyano-2-methoxybenzyl)-6-(1-methylcyclopropoxy)-9H-purin-8-yl)phenoxy)-2-methylbutanoic acid]
IC50 (DLD-1 BRCA2−/− cells; [2]): 398 nM

IC50 (DLD-1 cells; [1]): > 10000 nM
Structure (SMILES): COc1ccc(Cl)cc1Cn1c(-c2ccc(OCC(C)CC(=O)O)cc2Cl)nc2c(OC3(C)CC3)ncnc21 (racemic) [Example U42, 4-(3-chloro-4-(9-(5-chloro-2-methoxybenzyl)-6-(1-methylcyclopropoxy)-9H-purin-8-yl)phenoxy)-3-methylbutanoic acid]
IC50 (DLD-1 BRCA2−/− cells; [2]): 39.8 nM

IC50 (DLD-1 cells; [1]): > 10000 nM
Structure (SMILES): COc1ccc(Cl)cc1Cn1c(-c2cccc(CCCC(C)C(=O)O)c2Cl)nc2c(OC3(C)CC3)ncnc21 (racemic) [Example U55, 5-(2-chloro-3-(9-(5-chloro-2-methoxybenzyl)-6-(1-methylcyclopropoxy)-9H-purin-8-yl)phenyl)-2-methylpentanoic acid]
IC50 (DLD-1 BRCA2−/− cells; [2]): 126 nM

IC50 (DLD-1 cells; [1]): > 10000 nM
Structure (SMILES): COc1ccc(Cl)cc1Cn1c(-c2ccc(CCCC(C)C(=O)O)cc2Cl)nc2c(OC3(C)CC3)ncnc21 (racemic) [Example U56, 5-(3-chloro-4-(9-(5-chloro-2-methoxybenzyl)-6-(1-methylcyclopropoxy)-9H-purin-8-yl)phenyl)-2-methylpentanoic acid]
IC50 (DLD-1 BRCA2−/− cells; [2]): 126 nM

IC50 (DLD-1 cells; [1]): > 10000 nM
Structure (SMILES): COc1ccc(Cl)c(F)c1Cn1c(-c2ccc(OCCC(C)C(=O)O)cc2Cl)nc2c(OC3(C)CC3)ncnc21 (racemic) [Example U57, 4-(3-chloro-4-(9-(3-chloro-2-fluoro-6-methoxybenzyl)-6-(1-methylcyclopropoxy)-9H-purin-8-yl)phenoxy)-2-methylbutanoic acid]
IC50 (DLD-1 BRCA2−/− cells; [2]): 126 nM

IC50 (DLD-1 cells; [3]): 501 nM
Structure (SMILES): CC(C)Oc1ccc2c(c1)nc(-c1ccc(OCCC3CCCN3C)cc1Cl)n2Cc1ccccc1 (single isomer, unassigned) [Example A8, 1-benzyl-2-(2-chloro-4-(2-(1-methylpyrrolidin-2-yl)ethoxy)phenyl)-5-isopropoxy-1H-benzo[d]imidazole]
IC50 (DLD-1 BRCA2−/− cells; [4]): 126 nM

POLQ PD Prolif Lumin DLD1 mean pIC50 (DLD-1 cells; DLD-1 BRCA2 wt cells, 7 days): 6.3
Structure (SMILES): CC(C)Oc1ccc2c(c1)nc(-c1ccc(OCCC3CCCN3C)cc1Cl)n2Cc1ccccc1 (single isomer, unassigned) [Example A9, 1-benzyl-2-(2-chloro-4-(2-(1-methylpyrrolidin-2-yl)ethoxy)phenyl)-5-isopropoxy-1H-benzo[d]imidazole]
POLQ PD Prolif Lumin BRCA2 −/− mean pIC50 (DLD-1 BRCA2−/− cells; DLD-1 BRCA2−/− cells, 12 days): 6.7

IC50 (DLD-1 cells; [3]): 2510 nM
Structure (SMILES): CC(C)Oc1ccc2c(c1)nc(-c1ccc(OC3CCCN(C)CC3)cc1Cl)n2Cc1ccccc1 (single isomer, unassigned) [Example A10, 1-benzyl-2-(2-chloro-4-((1-methylazepan-4-yl)oxy)phenyl)-5-isopropoxy-1H-benzo[d]imidazole]
IC50 (DLD-1 BRCA2−/− cells; [4]): 794 nM

POLQ PD Prolif Lumin DLD1 mean pIC50 (DLD-1 cells; DLD-1 BRCA2 wt cells, 7 days): 5.8
Structure (SMILES): CC(C)Oc1ccc2c(c1)nc(-c1ccc(OC3CCCN(C)CC3)cc1Cl)n2Cc1ccccc1 (single isomer, unassigned) [Example A11, 1-benzyl-2-(2-chloro-4-((1-methylazepan-4-yl)oxy)phenyl)-5-isopropoxy-1H-benzo[d]imidazole]
POLQ PD Prolif Lumin BRCA2 −/− mean pIC50 (DLD-1 BRCA2−/− cells; DLD-1 BRCA2−/− cells, 12 days): 6.1

POLQ PD Prolif Lumin DLD1 mean pIC50 (DLD-1 cells; DLD-1 BRCA2 wt cells, 7 days): 5.7
Structure (SMILES): CN1CCCC1CCOc1ccc(-c2nc3c(OC4(C)CC4)ncnc3n2Cc2ccccc2)c(Cl)c1 (single isomer, unassigned) [Example D3, 9-benzyl-8-(2-chloro-4-(2-(1-methylpyrrolidin-2-yl)ethoxy)phenyl)-6-(1-methylcyclopropoxy)-9H-purine]
IC50 (DLD-1 BRCA2−/− cells; [4]): 63.1 nM

POLQ PD Prolif Lumin DLD1 mean pIC50 (DLD-1 cells; DLD-1 BRCA2 wt cells, 7 days): 6.2
Structure (SMILES): CN1CCCC1CCOc1ccc(-c2nc3c(OC4(C)CC4)ncnc3n2Cc2ccccc2)c(Cl)c1 (single isomer, unassigned) [Example D4, 9-benzyl-8-(2-chloro-4-(2-(1-methylpyrrolidin-2-yl)ethoxy)phenyl)-6-(1-methylcyclopropoxy)-9H-purine]
POLQ PD Prolif Lumin BRCA2 −/− mean pIC50 (DLD-1 BRCA2−/− cells; DLD-1 BRCA2−/− cells, 12 days): 7.3

IC50 (DLD-1 cells; [3]): 3980 nM
Structure (SMILES): CN1CCCC(Oc2ccc(-c3nc4c(OC5(C)CC5)ncnc4n3Cc3ccccc3)c(Cl)c2)CC1 (single isomer, unassigned) [Example D13, 9-benzyl-8-(2-chloro-4-((1-methylazepan-4-yl)oxy)phenyl)-6-(1-methylcyclopropoxy)-9H-purine]
IC50 (DLD-1 BRCA2−/− cells; [4]): 126 nM

POLQ PD Prolif Lumin DLD1 mean pIC50 (DLD-1 cells; DLD-1 BRCA2 wt cells, 7 days): 5.4
Structure (SMILES): CN1CCCC(Oc2ccc(-c3nc4c(OC5(C)CC5)ncnc4n3Cc3ccccc3)c(Cl)c2)CC1 (single isomer, unassigned) [Example D14, 9-benzyl-8-(2-chloro-4-((1-methylazepan-4-yl)oxy)phenyl)-6-(1-methylcyclopropoxy)-9H-purine]
POLQ PD Prolif Lumin BRCA2 −/− mean pIC50 (DLD-1 BRCA2−/− cells; DLD-1 BRCA2−/− cells, 12 days): 7.0

IC50 (DLD-1 cells; [3]): > 10000 nM
Structure (SMILES): CC(Cc1ccccn1)n1c(-c2ccc(OCCN3CCNCC3)cc2Cl)nc2c(OC3(C)CC3)ncnc21 (single isomer, unassigned) [Example S8, 8-(2-chloro-4-(2-(piperazin-1-yl)ethoxy)phenyl)-6-(1-methylcyclopropoxy)-9-(1-(pyridin-2-yl)propan-2-yl)-9H-purine]
POLQ PD Prolif Lumin BRCA2 −/− mean pIC50 (DLD-1 BRCA2−/− cells; DLD-1 BRCA2−/− cells, 12 days): 5.0

IC50 (DLD-1 cells; DLD-1, DLD-1 BRCA2 wt control proliferation, column head only partly shown, read-out: POLQ PD Prolif Lumin (converted)): > 10000 nM
Structure (SMILES): Cc1cnc(Cn2c(-c3ccc(OC4CCCNCC4)cc3Cl)nc3c(OC4(C)CC4)ncnc32)s1 (single isomer, unassigned) [Example T242, 2-((8-(4-(azepan-4-yloxy)-2-chlorophenyl)-6-(1-methylcyclopropoxy)-9H-purin-9-yl)methyl)-5-methylthiazole]
IC50 (DLD-1 BRCA2−/− cells; DLD-1, DLD-1 BRCA2-/- proliferation, column head only partly shown, read-out: POLQ PD Prolif Lumin (converted)): 794 nM

Structure (SMILES): Cc1cnc(Cn2c(-c3ccc(OC4CCCNCC4)cc3Cl)nc3c(OC4(C)CC4)ncnc32)s1 (single isomer, unassigned) [Example T243, 2-((8-(4-(azepan-4-yloxy)-2-chlorophenyl)-6-(1-methylcyclopropoxy)-9H-purin-9-yl)methyl)-5-methylthiazole]
POLQ PD Prolif Lumin (DLD-1 cells; DLD-1 BRCA2 wt control proliferation, column head only partly shown): <5.0
POLQ PD Prolif Lumin (DLD-1 BRCA2−/− cells; DLD-1 BRCA2-/- proliferation, column head only partly shown): 6.3
